Reference: ChEMBL document CHEMBL5058564, “EUbOPEN Chemogenomics Library 2 (Incucyte)” (2022)

What was measured:
Format in all cases: toxicity, cell-based
Fibroblast = assay: Incucyte cell viability with human fibroblast; conditions: 10 µM, compound concentration 10 uM
U2OS = assay: Incucyte cell viability with U2OS; conditions: human, 10 µM, compound concentration 10 uM
HEK-293T = assay: Incucyte cell viability with HEK293T; conditions: human, 10 µM, compound concentration 10 uM
[1] = 0 h, replicate number 2, timepoint 0 hours
[2] = 6 h, replicate number 1, timepoint 6 hours
[3] = 12 h, replicate number 1, timepoint 12 hours
[4] = 18 h, replicate number 1, timepoint 18 hours
[5] = 24 h, replicate number 1, timepoint 24 hours
[6] = 24 h, replicate number 2, timepoint 24 hours
[7] = 0 h, replicate number 1, timepoint 0 hours
[8] = 6 h, replicate number 2, timepoint 6 hours
[9] = 12 h, replicate number 2, timepoint 12 hours
[10] = 18 h, replicate number 2, timepoint 18 hours
Further: unitless GR value; below 1 slowed growth and below 0 cell loss.

In the case of `O=C(Nc1cc(C(F)(F)F)ccc1N1CCCCC1)c1ccncc1`, the “Growth Rate” value (Fibroblast; [1]) was 0.62, the “Growth Rate” value (Fibroblast; [2]) was -0.18 and the “Growth Rate” value (Fibroblast; [3]) was 0.52. The “Growth Rate” value (Fibroblast; [4]) was 0.65, the “Growth Rate” value (Fibroblast; [5]) was 0.59 and the “Growth Rate” value (Fibroblast; [6]) was 0.83. The “Growth Rate” value (U2OS; [7]) was -0.22, the “Growth Rate” value (U2OS; [1]) was 0.81 and the “Growth Rate” value (U2OS; [2]) was 0.54. For the same compound, the “Growth Rate” value (U2OS; [8]) was 0.75, the “Growth Rate” value (U2OS; [3]) was 0.85 and the “Growth Rate” value (U2OS; [9]) was 0.76. For the same compound, the “Growth Rate” value (U2OS; [4]) was 0.87, the “Growth Rate” value (U2OS; [10]) was 0.99 and the “Growth Rate” value (U2OS; [5]) was 0.81. The “Growth Rate” value (HEK-293T; [7]) was 0.08, the “Growth Rate” value (HEK-293T; [1]) was 0.52 and the “Growth Rate” value (HEK-293T; [9]) was 0.9. For the same compound, the “Growth Rate” value (HEK-293T; [6]) was 0.95.

`COc1cc2nc(N3CCN(C(=O)c4ccco4)CC3)nc(N)c2cc1OC.Cl` [PRAZOSIN HYDROCHLORIDE] was tested, and the “Growth Rate” value (Fibroblast; [2]) was -0.46, the “Growth Rate” value (Fibroblast; [3]) was 0.21 and the “Growth Rate” value (Fibroblast; [9]) was 0.92. The “Growth Rate” value (Fibroblast; [4]) was 0.49, the “Growth Rate” value (Fibroblast; [5]) was 0.44 and the “Growth Rate” value (U2OS; [7]) was -0.45. For the same compound, the “Growth Rate” value (U2OS; [2]) was 0.78, the “Growth Rate” value (U2OS; [3]) was 0.57 and the “Growth Rate” value (U2OS; [9]) was 0.91. The “Growth Rate” value (U2OS; [4]) was 0.56, the “Growth Rate” value (U2OS; [5]) was 0.77 and the “Growth Rate” value (U2OS; [6]) was 0.92. The “Growth Rate” value (HEK-293T; [2]) was 0.79, the “Growth Rate” value (HEK-293T; [3]) was 0.66 and the “Growth Rate” value (HEK-293T; [4]) was 0.88. The “Growth Rate” value (HEK-293T; [5]) was 0.92.

For `O=C(O)CCn1c2c(c3ccccc31)C[C@H](NS(=O)(=O)c1ccc(F)cc1)CC2` [RAMATROBAN], the “Growth Rate” value (Fibroblast; [7]) was -0.24, the “Growth Rate” value (Fibroblast; [1]) was 0.9 and the “Growth Rate” value (Fibroblast; [8]) was 0.99. The “Growth Rate” value (U2OS; [1]) was -1, the “Growth Rate” value (U2OS; [3]) was 0.75 and the “Growth Rate” value (U2OS; [9]) was 0.9. For the same compound, the “Growth Rate” value (U2OS; [4]) was 0.98, the “Growth Rate” value (U2OS; [10]) was 0.9 and the “Growth Rate” value (U2OS; [5]) was 0.97. For the same compound, the “Growth Rate” value (HEK-293T; [8]) was 0.71, the “Growth Rate” value (HEK-293T; [3]) was 0.91 and the “Growth Rate” value (HEK-293T; [9]) was 0.72. For the same compound, the “Growth Rate” value (HEK-293T; [10]) was 0.76.

In the case of `Fc1cccc(/C=N/N=C/c2cccc(F)c2)c1`, the “Growth Rate” value (Fibroblast; [2]) was -0.08, the “Growth Rate” value (Fibroblast; [3]) was 0.7 and the “Growth Rate” value (Fibroblast; [5]) was 0.91. The “Growth Rate” value (U2OS; [1]) was 0.84, the “Growth Rate” value (U2OS; [8]) was 0.83 and the “Growth Rate” value (U2OS; [9]) was 0.84. The “Growth Rate” value (HEK-293T; [1]) was 0.2, the “Growth Rate” value (HEK-293T; [2]) was 0.72 and the “Growth Rate” value (HEK-293T; [3]) was 0.77. The “Growth Rate” value (HEK-293T; [4]) was 0.89 and the “Growth Rate” value (HEK-293T; [5]) was 0.96.

In the case of `C=CCNc1ncnc2ccc(Br)cc12`, the “Growth Rate” value (Fibroblast; [1]) was 0.05, the “Growth Rate” value (Fibroblast; [3]) was 0.47 and the “Growth Rate” value (Fibroblast; [4]) was 0.3. The “Growth Rate” value (Fibroblast; [10]) was 0.98, the “Growth Rate” value (Fibroblast; [5]) was 0.45 and the “Growth Rate” value (Fibroblast; [6]) was 0.75. The “Growth Rate” value (U2OS; [1]) was 0.44, the “Growth Rate” value (U2OS; [3]) was 0.96 and the “Growth Rate” value (U2OS; [9]) was 0.77. The “Growth Rate” value (U2OS; [4]) was 0.82, the “Growth Rate” value (U2OS; [10]) was 0.85 and the “Growth Rate” value (U2OS; [5]) was 0.97. The “Growth Rate” value (U2OS; [6]) was 0.9, the “Growth Rate” value (HEK-293T; [7]) was 0.98 and the “Growth Rate” value (HEK-293T; [1]) was 0.64. For the same compound, the “Growth Rate” value (HEK-293T; [2]) was 0.57, the “Growth Rate” value (HEK-293T; [3]) was 0.84 and the “Growth Rate” value (HEK-293T; [4]) was 0.58. For the same compound, the “Growth Rate” value (HEK-293T; [10]) was 0.9, the “Growth Rate” value (HEK-293T; [5]) was 0.91 and the “Growth Rate” value (HEK-293T; [6]) was 0.96.

For `Cc1cc(O)c(-c2ccc([C@@H](C)CN(C)C)cc2)c2c1[nH]c(=O)c1sccc12`, the “Growth Rate” value (Fibroblast; [2]) was -0.87, the “Growth Rate” value (Fibroblast; [8]) was -0.66 and the “Growth Rate” value (Fibroblast; [3]) was -0.63. The “Growth Rate” value (Fibroblast; [9]) was -0.4, the “Growth Rate” value (Fibroblast; [4]) was -0.6 and the “Growth Rate” value (Fibroblast; [10]) was -0.3. For the same compound, the “Growth Rate” value (Fibroblast; [5]) was -0.36, the “Growth Rate” value (Fibroblast; [6]) was -0.25 and the “Growth Rate” value (U2OS; [7]) was -0.17. For the same compound, the “Growth Rate” value (U2OS; [1]) was 1, the “Growth Rate” value (U2OS; [2]) was 0.74 and the “Growth Rate” value (U2OS; [8]) was 0.66. For the same compound, the “Growth Rate” value (U2OS; [3]) was 0.65, the “Growth Rate” value (U2OS; [9]) was 0.31 and the “Growth Rate” value (U2OS; [4]) was 0.13. The “Growth Rate” value (U2OS; [10]) was 0.18, the “Growth Rate” value (U2OS; [5]) was 0.16 and the “Growth Rate” value (U2OS; [6]) was 0.09. For the same compound, the “Growth Rate” value (HEK-293T; [2]) was -0.8, the “Growth Rate” value (HEK-293T; [8]) was -0.77 and the “Growth Rate” value (HEK-293T; [3]) was -0.64. For the same compound, the “Growth Rate” value (HEK-293T; [9]) was -0.63, the “Growth Rate” value (HEK-293T; [4]) was -0.48 and the “Growth Rate” value (HEK-293T; [10]) was -0.52. For the same compound, the “Growth Rate” value (HEK-293T; [5]) was -0.37 and the “Growth Rate” value (HEK-293T; [6]) was -0.4.

For `CCn1c(-c2nc3cc(C(=O)N4CCCC(N)C4)ccc3n2C)cc2ccccc21.Cl` (stereo not given), the “Growth Rate” value (Fibroblast; [1]) was 0.99, the “Growth Rate” value (Fibroblast; [2]) was -0.75 and the “Growth Rate” value (Fibroblast; [8]) was 0.43. The “Growth Rate” value (Fibroblast; [3]) was -0.23, the “Growth Rate” value (Fibroblast; [9]) was 0.52 and the “Growth Rate” value (Fibroblast; [4]) was -0.08. For the same compound, the “Growth Rate” value (Fibroblast; [10]) was 0.56, the “Growth Rate” value (Fibroblast; [5]) was 0.15 and the “Growth Rate” value (Fibroblast; [6]) was 0.6. The “Growth Rate” value (U2OS; [7]) was -0.61, the “Growth Rate” value (U2OS; [2]) was 0.71 and the “Growth Rate” value (U2OS; [3]) was 0.95. For the same compound, the “Growth Rate” value (HEK-293T; [1]) was -1, the “Growth Rate” value (HEK-293T; [2]) was 0.72 and the “Growth Rate” value (HEK-293T; [3]) was 0.44. The “Growth Rate” value (HEK-293T; [4]) was 0.73 and the “Growth Rate” value (HEK-293T; [5]) was 0.83.

In the case of `COC(=O)[C@H](CCCNC(=N)N)NC(=O)CCCc1c(-c2ccccc2)[nH]c2c(F)cc(F)cc12.O=C(O)C(F)(F)F`, the “Growth Rate” value (Fibroblast; [7]) was 0.79, the “Growth Rate” value (Fibroblast; [1]) was 0.86 and the “Growth Rate” value (Fibroblast; [8]) was 0.39. For the same compound, the “Growth Rate” value (Fibroblast; [9]) was 0.65, the “Growth Rate” value (Fibroblast; [10]) was 0.38 and the “Growth Rate” value (Fibroblast; [6]) was 0.46. The “Growth Rate” value (U2OS; [7]) was -0.03, the “Growth Rate” value (U2OS; [2]) was 0.46 and the “Growth Rate” value (U2OS; [3]) was 0.64. For the same compound, the “Growth Rate” value (U2OS; [4]) was 0.8, the “Growth Rate” value (HEK-293T; [7]) was 0.87 and the “Growth Rate” value (HEK-293T; [1]) was 0.81. The “Growth Rate” value (HEK-293T; [2]) was 0.68, the “Growth Rate” value (HEK-293T; [8]) was 0.4 and the “Growth Rate” value (HEK-293T; [3]) was 0.53. The “Growth Rate” value (HEK-293T; [9]) was 0.32, the “Growth Rate” value (HEK-293T; [4]) was 0.64 and the “Growth Rate” value (HEK-293T; [10]) was 0.5. For the same compound, the “Growth Rate” value (HEK-293T; [5]) was 0.66 and the “Growth Rate” value (HEK-293T; [6]) was 0.53.

For `Cc1ccccc1C#Cc1ccc(CCC(=O)O)cc1`, the “Growth Rate” value (Fibroblast; [7]) was 0.45, the “Growth Rate” value (Fibroblast; [1]) was 0.93 and the “Growth Rate” value (Fibroblast; [8]) was 0.07. For the same compound, the “Growth Rate” value (Fibroblast; [9]) was 0.32, the “Growth Rate” value (Fibroblast; [10]) was 0.35 and the “Growth Rate” value (Fibroblast; [6]) was 0.31. The “Growth Rate” value (U2OS; [7]) was 0.25, the “Growth Rate” value (U2OS; [2]) was 0.52 and the “Growth Rate” value (U2OS; [8]) was 0.9. The “Growth Rate” value (U2OS; [3]) was 0.67, the “Growth Rate” value (U2OS; [4]) was 0.7 and the “Growth Rate” value (U2OS; [10]) was 0.92. For the same compound, the “Growth Rate” value (U2OS; [5]) was 0.77, the “Growth Rate” value (HEK-293T; [1]) was 0.37 and the “Growth Rate” value (HEK-293T; [2]) was 0.63. For the same compound, the “Growth Rate” value (HEK-293T; [8]) was 0.81, the “Growth Rate” value (HEK-293T; [3]) was 0.72 and the “Growth Rate” value (HEK-293T; [9]) was 0.75. For the same compound, the “Growth Rate” value (HEK-293T; [4]) was 0.73, the “Growth Rate” value (HEK-293T; [10]) was 0.67 and the “Growth Rate” value (HEK-293T; [5]) was 0.74. The “Growth Rate” value (HEK-293T; [6]) was 0.62.
